The results in this text go back to ChEMBL document CHEMBL5653631, “A Potent and Selective ULK1 Inhibitor Suppresses Autophagy and Sensitizes Cancer Cells to Nutrient Stress” (iScience, 2018).

The target of assay [1] is Ephrin type-A receptor 7 (Homo sapiens) (UniProt Q15375). As to the kind of experiment: Inhibition of human recombinant EphA7 at 40 nM in presence of ATP by radiometric assay relative to control.
Assay [2] addresses Tyrosine-protein kinase FRK (Homo sapiens) (UniProt P42685). As to the kind of experiment: Inhibition of human recombinant FRK at 40 nM in presence of ATP by radiometric assay relative to control.
The target of assay [3] is T1, Phosphorylase b kinase gamma catalytic chain, liver/testis isoform (Homo sapiens) (UniProt P15735).
T1 sequence (whole entry): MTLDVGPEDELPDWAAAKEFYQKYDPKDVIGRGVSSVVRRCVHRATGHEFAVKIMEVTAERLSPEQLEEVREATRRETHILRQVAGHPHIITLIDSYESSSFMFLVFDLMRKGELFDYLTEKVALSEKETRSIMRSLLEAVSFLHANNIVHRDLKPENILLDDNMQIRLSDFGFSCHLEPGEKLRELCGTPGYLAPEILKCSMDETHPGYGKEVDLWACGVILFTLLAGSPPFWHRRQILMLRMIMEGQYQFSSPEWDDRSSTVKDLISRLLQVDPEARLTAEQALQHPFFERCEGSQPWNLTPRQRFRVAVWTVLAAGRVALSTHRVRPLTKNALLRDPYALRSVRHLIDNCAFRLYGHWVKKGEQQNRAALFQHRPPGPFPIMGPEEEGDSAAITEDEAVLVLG
The assay can be described thus: Inhibition of human recombinant PHKg2 at 40 nM in presence of ATP by radiometric assay relative to control.

The target of assay [4] is T2, Ephrin type-B receptor 3 (Homo sapiens) (UniProt P54753).
T2 sequence (whole entry): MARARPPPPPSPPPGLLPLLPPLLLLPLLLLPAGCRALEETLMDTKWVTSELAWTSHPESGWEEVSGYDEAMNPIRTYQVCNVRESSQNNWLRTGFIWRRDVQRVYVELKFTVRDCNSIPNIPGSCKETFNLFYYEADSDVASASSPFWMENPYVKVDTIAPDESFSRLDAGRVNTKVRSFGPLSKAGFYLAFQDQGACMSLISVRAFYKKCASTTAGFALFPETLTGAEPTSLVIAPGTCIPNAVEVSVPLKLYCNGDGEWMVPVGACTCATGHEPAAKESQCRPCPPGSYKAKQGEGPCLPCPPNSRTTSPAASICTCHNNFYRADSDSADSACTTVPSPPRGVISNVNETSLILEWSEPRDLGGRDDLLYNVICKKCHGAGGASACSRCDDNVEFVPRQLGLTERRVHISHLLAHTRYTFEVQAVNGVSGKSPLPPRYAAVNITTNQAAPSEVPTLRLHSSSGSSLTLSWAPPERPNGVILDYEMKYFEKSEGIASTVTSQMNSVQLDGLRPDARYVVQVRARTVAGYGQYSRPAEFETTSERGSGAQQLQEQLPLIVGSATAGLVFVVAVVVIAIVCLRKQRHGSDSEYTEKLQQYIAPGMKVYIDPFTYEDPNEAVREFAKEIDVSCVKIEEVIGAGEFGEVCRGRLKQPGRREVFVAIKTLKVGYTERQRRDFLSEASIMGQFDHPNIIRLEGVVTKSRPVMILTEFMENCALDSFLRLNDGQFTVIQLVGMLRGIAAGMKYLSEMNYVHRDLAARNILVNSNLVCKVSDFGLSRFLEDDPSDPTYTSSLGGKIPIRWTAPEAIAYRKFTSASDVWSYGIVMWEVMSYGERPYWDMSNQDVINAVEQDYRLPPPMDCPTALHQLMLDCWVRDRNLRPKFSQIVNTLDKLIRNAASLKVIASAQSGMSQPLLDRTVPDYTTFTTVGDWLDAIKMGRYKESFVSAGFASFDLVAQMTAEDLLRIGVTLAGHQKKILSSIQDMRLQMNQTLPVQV
As to the kind of experiment: Inhibition of human recombinant EphB3 at 40 nM related to control ULK1.

The target in assay [5] is Serine/threonine-protein kinase PLK1 (Homo sapiens) (UniProt P53350). The assay can be described thus: Inhibition of human recombinant PLK1 at 500 nM in presence of ATP by radiometric assay relative to control.
Assay [6] has as its target Calcium/calmodulin-dependent protein kinase type 1B (Homo sapiens) (UniProt Q6P2M8). The assay can be described thus: Inhibition of human recombinant CaMK1b at 500 nM related to control ULK1.
Assay [7] deals with Macrophage colony-stimulating factor 1 receptor (Homo sapiens) (UniProt P07333). As to the kind of experiment: Inhibition of human recombinant FMS at 500 nM related to control ULK1.
In assay [8] the target is Serine/threonine-protein kinase N2 (Homo sapiens) (UniProt Q16513). As to the kind of experiment: Inhibition of human recombinant PKN2 at 500 nM related to control ULK1.
In assay [9] the target is Tyrosine-protein kinase CSK (Homo sapiens) (UniProt P41240). The assay can be described thus: Inhibition of human recombinant CSK at 15 nM in presence of ATP by radiometric assay relative to control.
Assay [10] addresses T3, Serine/threonine-protein kinase TAO3 (Homo sapiens) (UniProt Q9H2K8).
T3 sequence (whole entry): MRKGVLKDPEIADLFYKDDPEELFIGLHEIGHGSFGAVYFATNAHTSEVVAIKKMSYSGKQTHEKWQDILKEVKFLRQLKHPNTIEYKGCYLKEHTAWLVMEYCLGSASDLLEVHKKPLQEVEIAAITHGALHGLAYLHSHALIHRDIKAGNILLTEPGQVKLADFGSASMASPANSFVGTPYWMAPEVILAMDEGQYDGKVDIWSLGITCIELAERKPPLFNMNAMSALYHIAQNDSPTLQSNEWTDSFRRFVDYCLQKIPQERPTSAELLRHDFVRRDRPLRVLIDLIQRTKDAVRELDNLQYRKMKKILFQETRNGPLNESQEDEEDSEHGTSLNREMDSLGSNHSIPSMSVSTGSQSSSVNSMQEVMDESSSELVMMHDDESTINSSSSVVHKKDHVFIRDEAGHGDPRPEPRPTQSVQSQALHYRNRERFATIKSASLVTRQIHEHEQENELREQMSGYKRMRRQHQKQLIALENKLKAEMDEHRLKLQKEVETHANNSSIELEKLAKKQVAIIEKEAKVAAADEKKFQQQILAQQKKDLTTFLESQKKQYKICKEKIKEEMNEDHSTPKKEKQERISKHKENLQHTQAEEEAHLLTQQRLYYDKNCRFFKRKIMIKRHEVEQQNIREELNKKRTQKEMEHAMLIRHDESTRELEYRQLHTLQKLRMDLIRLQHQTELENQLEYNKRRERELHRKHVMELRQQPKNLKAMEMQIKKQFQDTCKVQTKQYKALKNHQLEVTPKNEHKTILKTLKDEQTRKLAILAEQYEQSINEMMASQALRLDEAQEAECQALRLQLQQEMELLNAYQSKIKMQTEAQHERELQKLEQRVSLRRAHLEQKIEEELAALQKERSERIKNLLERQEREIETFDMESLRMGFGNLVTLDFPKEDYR
The assay can be described thus: Inhibition of human recombinant TAO3 at 15 nM in presence of ATP by radiometric assay relative to control.

Serine/threonine-protein kinase N2 (Homo sapiens), sequence (Q16513 whole entry, looked up): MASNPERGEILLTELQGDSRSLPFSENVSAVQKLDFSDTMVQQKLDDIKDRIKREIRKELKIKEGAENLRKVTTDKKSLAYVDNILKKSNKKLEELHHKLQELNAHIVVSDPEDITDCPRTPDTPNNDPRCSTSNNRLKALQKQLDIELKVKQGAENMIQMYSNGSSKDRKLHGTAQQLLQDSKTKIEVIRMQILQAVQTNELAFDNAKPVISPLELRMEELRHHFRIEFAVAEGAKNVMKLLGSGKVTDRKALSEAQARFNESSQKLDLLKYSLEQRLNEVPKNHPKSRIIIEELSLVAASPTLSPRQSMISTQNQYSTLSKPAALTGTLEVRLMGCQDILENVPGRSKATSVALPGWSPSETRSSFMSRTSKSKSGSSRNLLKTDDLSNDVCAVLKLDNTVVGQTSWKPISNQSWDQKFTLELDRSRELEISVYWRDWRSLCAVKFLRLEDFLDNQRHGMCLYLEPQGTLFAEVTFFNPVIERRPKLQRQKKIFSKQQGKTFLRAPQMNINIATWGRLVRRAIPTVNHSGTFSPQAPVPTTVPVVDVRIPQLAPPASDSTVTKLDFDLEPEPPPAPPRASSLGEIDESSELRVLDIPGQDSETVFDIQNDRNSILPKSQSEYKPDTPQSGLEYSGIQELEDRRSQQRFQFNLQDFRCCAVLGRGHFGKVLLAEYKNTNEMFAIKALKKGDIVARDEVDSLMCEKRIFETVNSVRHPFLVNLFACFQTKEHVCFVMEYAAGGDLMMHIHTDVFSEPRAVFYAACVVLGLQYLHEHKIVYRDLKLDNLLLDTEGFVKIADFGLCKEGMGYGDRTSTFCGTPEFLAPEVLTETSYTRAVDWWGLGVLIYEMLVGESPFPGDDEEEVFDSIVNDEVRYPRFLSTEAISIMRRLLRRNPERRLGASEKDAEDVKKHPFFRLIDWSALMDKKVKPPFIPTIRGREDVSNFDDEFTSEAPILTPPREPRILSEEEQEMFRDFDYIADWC
Tyrosine-protein kinase FRK (Homo sapiens), sequence (P42685 whole entry, canonical isoform): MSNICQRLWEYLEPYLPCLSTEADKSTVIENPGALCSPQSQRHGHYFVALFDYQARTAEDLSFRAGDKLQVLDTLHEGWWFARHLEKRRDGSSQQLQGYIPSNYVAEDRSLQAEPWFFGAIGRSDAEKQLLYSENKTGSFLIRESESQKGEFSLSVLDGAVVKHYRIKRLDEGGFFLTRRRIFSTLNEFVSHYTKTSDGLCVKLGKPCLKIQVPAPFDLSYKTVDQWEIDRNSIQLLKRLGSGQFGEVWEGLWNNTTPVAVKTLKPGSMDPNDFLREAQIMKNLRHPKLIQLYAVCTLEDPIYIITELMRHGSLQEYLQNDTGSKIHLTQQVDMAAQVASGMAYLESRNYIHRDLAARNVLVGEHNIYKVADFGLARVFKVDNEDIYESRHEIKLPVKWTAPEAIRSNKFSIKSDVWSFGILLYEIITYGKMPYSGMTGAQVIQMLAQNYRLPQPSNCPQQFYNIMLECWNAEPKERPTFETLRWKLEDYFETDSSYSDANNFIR
Tyrosine-protein kinase CSK (Homo sapiens), sequence (P41240 2-450 limits assumed): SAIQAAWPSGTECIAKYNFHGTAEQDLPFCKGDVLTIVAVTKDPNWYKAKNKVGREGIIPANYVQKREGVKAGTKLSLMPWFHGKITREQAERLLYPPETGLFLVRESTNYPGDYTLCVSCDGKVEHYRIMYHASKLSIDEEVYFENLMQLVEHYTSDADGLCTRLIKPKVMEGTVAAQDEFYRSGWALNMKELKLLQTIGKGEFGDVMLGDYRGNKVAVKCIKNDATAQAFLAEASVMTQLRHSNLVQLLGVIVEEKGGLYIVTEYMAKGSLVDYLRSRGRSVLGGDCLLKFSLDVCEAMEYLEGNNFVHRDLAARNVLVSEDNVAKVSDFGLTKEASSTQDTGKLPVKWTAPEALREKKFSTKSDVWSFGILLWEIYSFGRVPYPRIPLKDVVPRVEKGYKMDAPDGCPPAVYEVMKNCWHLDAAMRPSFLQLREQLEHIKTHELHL
Serine/threonine-protein kinase PLK1 (Homo sapiens), sequence (P53350 whole entry): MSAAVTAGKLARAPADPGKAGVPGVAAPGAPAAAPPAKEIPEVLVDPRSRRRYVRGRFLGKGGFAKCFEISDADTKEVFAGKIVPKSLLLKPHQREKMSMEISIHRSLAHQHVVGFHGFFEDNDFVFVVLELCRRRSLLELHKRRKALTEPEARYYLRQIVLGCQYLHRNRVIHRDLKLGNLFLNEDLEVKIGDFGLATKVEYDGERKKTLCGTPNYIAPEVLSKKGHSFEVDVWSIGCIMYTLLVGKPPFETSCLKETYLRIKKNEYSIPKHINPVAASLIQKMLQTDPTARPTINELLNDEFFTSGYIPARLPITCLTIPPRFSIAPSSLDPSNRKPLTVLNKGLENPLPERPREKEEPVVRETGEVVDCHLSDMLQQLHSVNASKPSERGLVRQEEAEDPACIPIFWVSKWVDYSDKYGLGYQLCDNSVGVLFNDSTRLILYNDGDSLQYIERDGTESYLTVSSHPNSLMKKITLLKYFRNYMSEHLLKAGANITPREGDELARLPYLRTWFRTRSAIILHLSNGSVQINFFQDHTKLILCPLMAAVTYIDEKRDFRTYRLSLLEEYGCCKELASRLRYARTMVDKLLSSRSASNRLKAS
Calcium/calmodulin-dependent protein kinase type 1B (Homo sapiens), sequence (Q6P2M8 whole entry): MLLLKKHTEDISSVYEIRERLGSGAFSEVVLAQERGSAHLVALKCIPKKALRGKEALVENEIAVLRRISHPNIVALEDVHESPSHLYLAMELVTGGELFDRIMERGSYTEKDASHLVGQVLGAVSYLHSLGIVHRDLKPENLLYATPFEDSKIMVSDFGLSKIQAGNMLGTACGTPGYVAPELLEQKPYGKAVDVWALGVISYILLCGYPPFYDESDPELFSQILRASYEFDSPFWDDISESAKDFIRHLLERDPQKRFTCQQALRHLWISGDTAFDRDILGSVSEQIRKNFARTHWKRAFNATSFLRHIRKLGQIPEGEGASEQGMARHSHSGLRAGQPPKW
Macrophage colony-stimulating factor 1 receptor (Homo sapiens), sequence (P07333 whole entry): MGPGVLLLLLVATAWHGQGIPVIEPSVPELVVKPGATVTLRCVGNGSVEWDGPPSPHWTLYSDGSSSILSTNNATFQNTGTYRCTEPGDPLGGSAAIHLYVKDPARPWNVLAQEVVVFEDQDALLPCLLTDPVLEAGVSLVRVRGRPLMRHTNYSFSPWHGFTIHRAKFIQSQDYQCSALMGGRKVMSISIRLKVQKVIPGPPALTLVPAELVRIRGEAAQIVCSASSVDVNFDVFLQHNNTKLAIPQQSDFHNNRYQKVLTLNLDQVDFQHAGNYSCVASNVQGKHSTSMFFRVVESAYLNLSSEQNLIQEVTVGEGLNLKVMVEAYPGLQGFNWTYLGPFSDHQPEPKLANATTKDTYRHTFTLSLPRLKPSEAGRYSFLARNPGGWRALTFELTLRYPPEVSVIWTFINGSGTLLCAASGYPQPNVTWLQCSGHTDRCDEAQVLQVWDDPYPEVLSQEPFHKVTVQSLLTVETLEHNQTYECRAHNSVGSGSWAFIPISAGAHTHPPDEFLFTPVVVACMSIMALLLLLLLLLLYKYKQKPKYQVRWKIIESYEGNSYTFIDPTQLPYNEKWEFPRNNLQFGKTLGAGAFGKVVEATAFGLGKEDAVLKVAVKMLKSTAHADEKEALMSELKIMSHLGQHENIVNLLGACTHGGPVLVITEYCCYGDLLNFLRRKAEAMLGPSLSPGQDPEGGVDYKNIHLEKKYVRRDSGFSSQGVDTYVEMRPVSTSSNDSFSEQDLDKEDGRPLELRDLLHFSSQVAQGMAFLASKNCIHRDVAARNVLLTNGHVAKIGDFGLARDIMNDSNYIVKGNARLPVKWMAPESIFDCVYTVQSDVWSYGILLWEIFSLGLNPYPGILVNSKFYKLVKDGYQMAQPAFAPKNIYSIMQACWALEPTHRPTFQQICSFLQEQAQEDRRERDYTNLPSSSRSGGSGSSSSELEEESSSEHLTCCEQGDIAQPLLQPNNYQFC
Ephrin type-A receptor 7 (Homo sapiens), sequence (Q15375 28-998 limits assumed): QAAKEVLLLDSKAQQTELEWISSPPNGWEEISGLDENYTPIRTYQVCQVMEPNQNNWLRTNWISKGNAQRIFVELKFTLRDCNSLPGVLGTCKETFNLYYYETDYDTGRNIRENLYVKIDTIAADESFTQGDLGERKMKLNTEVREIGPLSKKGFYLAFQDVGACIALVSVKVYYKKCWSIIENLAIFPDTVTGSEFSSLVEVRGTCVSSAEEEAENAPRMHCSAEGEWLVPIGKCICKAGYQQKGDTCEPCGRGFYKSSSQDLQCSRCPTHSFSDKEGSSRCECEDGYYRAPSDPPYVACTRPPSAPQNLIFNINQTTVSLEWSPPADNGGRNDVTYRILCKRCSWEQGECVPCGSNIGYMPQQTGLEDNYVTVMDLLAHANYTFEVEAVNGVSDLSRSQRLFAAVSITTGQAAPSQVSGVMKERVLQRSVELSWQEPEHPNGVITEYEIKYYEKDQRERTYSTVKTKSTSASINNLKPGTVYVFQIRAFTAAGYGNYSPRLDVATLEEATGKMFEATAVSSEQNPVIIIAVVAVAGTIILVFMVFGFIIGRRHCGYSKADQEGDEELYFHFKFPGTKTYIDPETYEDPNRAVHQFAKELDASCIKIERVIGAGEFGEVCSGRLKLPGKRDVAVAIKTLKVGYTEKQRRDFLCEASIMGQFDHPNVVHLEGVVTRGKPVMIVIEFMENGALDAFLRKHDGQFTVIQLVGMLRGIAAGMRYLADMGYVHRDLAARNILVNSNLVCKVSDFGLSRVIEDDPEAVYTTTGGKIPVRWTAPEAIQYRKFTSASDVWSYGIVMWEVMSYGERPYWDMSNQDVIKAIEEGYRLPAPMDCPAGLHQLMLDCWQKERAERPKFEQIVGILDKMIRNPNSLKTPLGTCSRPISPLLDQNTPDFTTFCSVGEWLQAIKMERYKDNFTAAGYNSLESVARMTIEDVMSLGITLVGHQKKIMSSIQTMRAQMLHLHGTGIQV

Consider `O=C(N[C@@H](C1CC1)C(F)(F)F)c1cc(-c2cnn3cc(-c4ccc(F)cc4)cnc23)cs1`, for which the inhibition in assay [1], in assay [2] and in [3] was 0% in each case. Also, in assay [4], the fold change (FC) came to 0.

On to `CNC(=O)c1ccccc1Oc1nc(Nc2cc(OC)c(OC)c(OC)c2)ncc1Br`, for which, in assay [5], the inhibition was found to be 0%. Besides, the fold change (FC) in assay [6] was determined as 0; in assay [7], 0.26; in assay [8], 0.

In the case of `CC(C)[C@H](NC(=O)c1cc(-c2cnn3cc(-c4ccc(OCCN5CCCCC5)cc4)cnc23)cs1)C(F)(F)F`, the inhibition in assay [9] stood at 12%; in assay [10] it was 1%.
